Test results as given in US11691962B2 (eXIthera Pharmaceuticals, Inc., priority 2018, dated 2023).

What follows are compounds tested against Factor XIa (Homo sapiens (Human), UniProt P03951) (assay: Factor XIa enzyme inhibition assay (dose response, fluorogenic AMC substrate)). Details: read-out: hFXIa IC50.
Format: biochemical
In short: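 Human FXIa at 0.25 nM final with 50 μM final PyroGlu-Pro-Arg-AMC in 20 mM Hepes pH 7.4, 150 mM NaCl, 0.02% Tween 20. Two-fold serial compound dilutions; fluorescence read every minute for 30 min at 30° C. IC50 from a four-parameter Hill fit.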

Factor XIa, sequence (P03951 388-625): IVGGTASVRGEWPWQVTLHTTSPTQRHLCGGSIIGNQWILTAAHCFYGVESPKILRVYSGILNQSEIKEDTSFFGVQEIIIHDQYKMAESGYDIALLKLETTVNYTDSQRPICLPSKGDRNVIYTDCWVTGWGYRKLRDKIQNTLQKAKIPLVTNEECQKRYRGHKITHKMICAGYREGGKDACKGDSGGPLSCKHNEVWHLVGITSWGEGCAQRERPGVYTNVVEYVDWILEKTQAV
Factor XIa, sequence (P03951 19-387 partner): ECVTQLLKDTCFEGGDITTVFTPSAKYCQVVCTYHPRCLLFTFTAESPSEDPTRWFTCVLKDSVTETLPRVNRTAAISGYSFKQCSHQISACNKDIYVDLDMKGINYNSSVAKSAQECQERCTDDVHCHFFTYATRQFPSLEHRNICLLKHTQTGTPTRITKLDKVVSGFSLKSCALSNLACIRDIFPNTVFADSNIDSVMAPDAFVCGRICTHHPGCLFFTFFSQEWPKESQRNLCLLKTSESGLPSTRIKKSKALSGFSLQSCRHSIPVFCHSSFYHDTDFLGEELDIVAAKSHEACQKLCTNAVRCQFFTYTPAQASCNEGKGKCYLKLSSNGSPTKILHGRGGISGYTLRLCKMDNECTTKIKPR

First: CC[C@@H](NC(=O)N1C(=O)[C@H](Cc2cc(C)nc(N)c2)[C@H]1C(=O)N(C)C1=NCC(=O)N1C)c1ccccc1 [Compound 1-148, (2S,3R)-3-((2-amino-6-methylpyridin-4-yl)methyl)-N2-(5-oxo-1-methyl-4,5-dihydro-1H-imidazol-2-yl)-N1-((R)-1-phenylpropyl)-N2-methyl-4-oxoazetidine-1,2-dicarboxamide]
Second: CC[C@@H](NC(=O)N1C(=O)[C@H](Cc2cc(C)nc(N)c2)[C@H]1C(=O)N(C)c1cnn(C)c1)c1ccc(F)cc1 [Compound 1-169, (2S,3R)-3-((2-amino-6-methylpyridin-4-yl)methyl)-N2-(1-methyl-1H-pyrazol-4-yl)-N1-((R)-1-(4-fluorophenyl)propyl)-N2-methyl-4-oxoazetidine-1,2-dicarboxamide]
The IC50 of the first is higher: 0.1 to 1 µM for the first, 0.01 to 0.1 µM for the second.

Compared with CC[C@@H](NC(=O)N1C(=O)[C@H](Cc2cc(C)nc(N)c2)[C@H]1C(=O)N(C)c1ccnn1C)c1cccc(C)c1C [Compound 1-149, (2S,3R)-3-((2-amino-6-methylpyridin-4-yl)methyl)-N2-(1-methyl-1H-pyrazol-5-yl)-N1-((R)-1-(2,3-dimethylphenyl)propyl)-N2-methyl-4-oxoazetidine-1,2-dicarboxamide], CC[C@@H](NC(=O)N1C(=O)[C@H](Cc2cc(C)nc(N)c2)[C@H]1C(=O)N(C)c1ccnn1C)c1cccc(F)c1C [Compound 1-150, (2S,3R)-3-((2-amino-6-methylpyridin-4-yl)methyl)-N2-(1-methyl-1H-pyrazol-5-yl)-N1-((R)-1-(3-fluoro-2-methylphenyl)propyl)-N2-methyl-4-oxoazetidine-1,2-dicarboxamide] is lower in IC50: 0.01 to 0.1 µM for the first, < 0.01 µM for the second. The second is the more potent here.

CC[C@@H](NC(=O)N1C(=O)[C@H](Cc2cc(C)nc(N)c2)[C@H]1C(=O)N(C)c1ccnn1C)c1ccc(F)c(C)c1 [Compound 1-153, (2S,3R)-3-((2-amino-6-methylpyridin-4-yl)methyl)-N2-(1-methyl-1H-pyrazol-5-yl)-N1-((R)-1-(4-fluoro-3-methylphenyl)propyl)-N2-methyl-4-oxoazetidine-1,2-dicarboxamide] and CC[C@@H](NC(=O)N1C(=O)[C@H](Cc2cc(C)nc(N)c2)[C@H]1C(=O)N(C)c1ccnn1C)c1cc(C)ccc1F [Compound 1-164, (2S,3R)-3-((2-amino-6-methylpyridin-4-yl)methyl)-N2-(1-methyl-1H-pyrazol-5-yl)-N1-((R)-1-(2-fluoro-5-methylphenyl)propyl)-N2-methyl-4-oxoazetidine-1,2-dicarboxamide] cannot be ordered by IC50: < 0.01 µM for the first, < 0.01 µM for the second.

CC[C@@H](NC(=O)N1C(=O)[C@H](Cc2cc(C)nc(N)c2)[C@H]1C(=O)N(C)c1ccnn1C)c1ccc(C)cc1 [Compound 1-154, (2S,3R)-3-((2-amino-6-methylpyridin-4-yl)methyl)-N2-(1-methyl-1H-pyrazol-5-yl)-N1-((R)-1-(4-methylphenyl)propyl)-N2-methyl-4-oxoazetidine-1,2-dicarboxamide] and CC[C@@H](NC(=O)N1C(=O)[C@H](Cc2cc(C)nc(N)c2)[C@H]1C(=O)N(C)c1ccnn1C)c1ccc(F)cc1 [Compound 1-156, (2S,3R)-3-((2-amino-6-methylpyridin-4-yl)methyl)-N2-(1-methyl-1H-pyrazol-5-yl)-N1-((R)-1-(4-fluorophenyl)propyl)-N2-methyl-4-oxoazetidine-1,2-dicarboxamide] cannot be ordered by IC50: < 0.01 µM for the first, < 0.01 µM for the second.

CC[C@@H](NC(=O)N1C(=O)[C@H](Cc2cc(C)nc(N)c2)[C@H]1C(=O)N(C)c1ccnn1C)c1ccc(Cl)cc1 [Compound 1-157, (2S,3R)-3-((2-amino-6-methylpyridin-4-yl)methyl)-N2-(1-methyl-1H-pyrazol-5-yl)-N1-((R)-1-(4-chlorophenyl)propyl)-N2-methyl-4-oxoazetidine-1,2-dicarboxamide] and CC[C@@H](NC(=O)N1C(=O)[C@H](Cc2cc(C)nc(N)c2)[C@H]1C(=O)N(C)c1cnn(C)c1)c1ccc(Cl)cc1 [Compound 1-170, (2S,3R)-3-((2-amino-6-methylpyridin-4-yl)methyl)-N2-(1-methyl-1H-pyrazol-4-yl)-N1-((R)-1-(4-chlorophenyl)propyl)-N2-methyl-4-oxoazetidine-1,2-dicarboxamide] fall in the same range of IC50: 0.01 to 0.1 µM for the first, 0.01 to 0.1 µM for the second.

CC[C@@H](NC(=O)N1C(=O)[C@H](Cc2cc(C)nc(N)c2)[C@H]1C(=O)N(C)c1ccnn1C)c1ccc(F)cc1C [Compound 1-159, (2S,3R)-3-((2-amino-6-methylpyridin-4-yl)methyl)-N2-(1-methyl-1H-pyrazol-5-yl)-N1-((R)-1-(4-fluoro-2-methylhenyl)propyl)-N2-methyl-4-oxoazetidine-1,2-dicarboxamide] and CC[C@@H](NC(=O)N1C(=O)[C@H](Cc2cc(C)nc(N)c2)[C@H]1C(=O)N(C)c1ccnn1C)c1ccc(C)cc1C [Compound 1-161, (2S,3R)-3-((2-amino-6-methylpyridin-4-yl)methyl)-N2-(1-methyl-1H-pyrazol-5-yl)-N1-((R)-1-(2,4-dimethylphenyl)propyl)-N2-methyl-4-oxoazetidine-1,2-dicarboxamide] cannot be ordered by IC50: < 0.01 µM for the first, < 0.01 µM for the second.

CC[C@@H](NC(=O)N1C(=O)[C@H](Cc2cc(C)nc(N)c2)[C@H]1C(=O)N(C)c1ccnn1C)c1ccc(C)cc1F [Compound 1-160, (2S,3R)-3-((2-amino-6-methylpyridin-4-yl)methyl)-N2-(1-methyl-1H-pyrazol-5-yl)-N1-((R)-1-(2-fluoro-4-methylphenyl)propyl)-N2-methyl-4-oxoazetidine-1,2-dicarboxamide] and CC[C@@H](NC(=O)N1C(=O)[C@H](Cc2cc(C)nc(N)c2)[C@H]1C(=O)N(C)c1ccnn1C)c1cc(C)ccc1C [Compound 1-166, (2S,3R)-3-((2-amino-6-methylpyridin-4-yl)methyl)-N2-(1-methyl-1H-pyrazol-5-yl)-N1-((R)-1-(2,5-dimethylphenyl)propyl)-N2-methyl-4-oxoazetidine-1,2-dicarboxamide] cannot be ordered by IC50: < 0.01 µM for the first, < 0.01 µM for the second.

Compared with CC[C@@H](NC(=O)N1C(=O)[C@H](Cc2ccnc(N)c2)[C@H]1C(=O)N(C)c1nncn1C)c1ccccc1 [Compound 1-165, (2S,3R)-3-((2-aminopyridin-4-yl)methyl)-N2-(4-methyl-4H-1,2,4-triazol-3-yl)-N1-((R)-1-phenylpropyl)-N2-methyl-4-oxoazetidine-1,2-dicarboxamide], CC[C@@H](NC(=O)N1C(=O)[C@H](Cc2ccnc(N)c2)[C@H]1C(=O)N(C)c1nnco1)c1ccccc1 [Compound 1-167, (2S,3R)-3-((2-aminopyridin-4-yl)methyl)-N2-(1,3,4-oxadiazol-2-yl)-N1-((R)-1-phenylpropyl)-N2-methyl-4-oxoazetidine-1,2-dicarboxamide] is lower in IC50: 0.01 to 0.1 µM for the first, < 0.01 µM for the second.

First: CC[C@@H](NC(=O)N1C(=O)[C@H](Cc2ccnc(N)c2)[C@H]1C(=O)N(C)c1nncs1)c1ccccc1 [Compound 1-168, (2S,3R)-3-((2-aminopyridin-4-yl)methyl)-N2-(1,3,4-thiadiazol-2-yl)-N1-((R)-1-phenylpropyl)-N2-methyl-4-oxoazetidine-1,2-dicarboxamide]
Second: CC[C@@H](NC(=O)N1C(=O)[C@H](Cc2cc(C)nc(N)c2)[C@H]1C(=O)N(C)c1cnn(C)c1)c1ccc(F)c(C)c1 [Compound 1-171, (2S,3R)-3-((2-amino-6-methylpyridin-4-yl)methyl)-N2-(1-methyl-1H-pyrazol-4-yl)-N1-((R)-1-(4-fluoro-3-methylphenyl)propyl)-N2-methyl-4-oxoazetidine-1,2-dicarboxamide]
The IC50 of the first is lower: < 0.01 µM for the first, 0.01 to 0.1 µM for the second.

CC[C@@H](NC(=O)N1C(=O)[C@H](Cc2cc(C)nc(N)c2)[C@H]1C(=O)N(C)c1cnn(C)c1)c1ccc(C)c(F)c1 [Compound 1-172, (2S,3R)-3-((2-amino-6-methylpyridin-4-yl)methyl)-N2-(1-methyl-1H-pyrazol-4-yl)-N1-((R)-1-(3-fluoro-4-methylphenyl)propyl)-N2-methyl-4-oxoazetidine-1,2-dicarboxamide] and CC[C@@H](NC(=O)N1C(=O)[C@H](Cc2cc(C)nc(N)c2)[C@H]1C(=O)N(C)c1cnn(C)c1)c1ccc(C)c(C)c1 [Compound 1-175, (2S,3R)-3-((2-amino-6-methylpyridin-4-yl)methyl)-N2-(1-methyl-1H-pyrazol-4-yl)-N1-((R)-1-(3,4-dimethylphenyl)propyl)-N2-methyl-4-oxoazetidine-1,2-dicarboxamide] cannot be ordered by IC50: < 0.01 µM for the first, < 0.01 µM for the second.

CC[C@@H](NC(=O)N1C(=O)[C@H](Cc2cc(C)nc(N)c2)[C@H]1C(=O)N(C)c1cnn(C)c1)c1cccc(C)c1C [Compound 1-173, (2S,3R)-3-((2-amino-6-methylpyridin-4-yl)methyl)-N2-(1-methyl-1H-pyrazol-4-yl)-N1-((R)-1-(2,3-dimethylphenyl)propyl)-N2-methyl-4-oxoazetidine-1,2-dicarboxamide] and CC[C@@H](NC(=O)N1C(=O)[C@H](Cc2cc(C)nc(N)c2)[C@H]1C(=O)N(C)c1cnn(C)c1)c1cc(C)ccc1C [Compound 1-176, (2S,3R)-3-((2-amino-6-methylpyridin-4-yl)methyl)-N2-(1-methyl-1H-pyrazol-4-yl)-N1-((R)-1-(2,5-dimethylphenyl)propyl)-N2-methyl-4-oxoazetidine-1,2-dicarboxamide] fall in the same range of IC50: 0.01 to 0.1 µM for the first, 0.01 to 0.1 µM for the second.

CC[C@@H](NC(=O)N1C(=O)[C@H](Cc2cc(C)nc(N)c2)[C@H]1C(=O)N(C)c1cnn(C)c1)c1cccc(F)c1F [Compound 1-174, (2S,3R)-3-((2-amino-6-methylpyridin-4-yl)methyl)-N2-(1-methyl-1H-pyrazol-4-yl)-N1-((R)-1-(2,3-difluorophenyl)propyl)-N2-methyl-4-oxoazetidine-1,2-dicarboxamide] and CC[C@@H](NC(=O)N1C(=O)[C@H](Cc2cc(C)nc(N)c2)[C@H]1C(=O)N(C)c1cnn(C)c1)c1cc(C)ccc1F [Compound 1-177, (2S,3R)-3-((2-amino-6-methylpyridin-4-yl)methyl)-N2-(1-methyl-1H-pyrazol-4-yl)-N1-((R)-1-(2-fluoro-5-methylphenyl)propyl)-N2-methyl-4-oxoazetidine-1,2-dicarboxamide] fall in the same range of IC50: 0.01 to 0.1 µM for the first, 0.01 to 0.1 µM for the second.
